In US20130023555A1, “KINASE INHIBITOR WITH IMPROVED SOLUBILITY PROFILE” (Abbott Laboratories, priority 2011, published 2013):
Converted amounts (≈) assume the structure as drawn.

What was measured:
[1] = biological target: T1, Aurora B (Homo sapiens, UniProt Q96GD4); assay: Aurora B enzyme assay (time-resolved fluorescence); type: biochemical; conditions: 1 mM ATP, with INCENP
T1 construct: Active Aurora B enzyme (recombinant residues 1-344)
Procedure: After 1 hour, the reaction was stopped with EDTA and anti-phospho-histone H3 Europium Cryptate (Cis-Bio) and SA-APC (Phycolink, Prozyme) were added to detect the phosphopeptide. The amount of phosphorylation was determined by the time-resolved fluorescence ratio of signals at 665 nm and 615 nm. The IC50's were calculated by an exponential fit of the inhibition values with the inhibitor concentrations using Assay Explorer software.

[2] = biological target: T2, CYP3A4 (Homo sapiens, UniProt P08684); assay: CYP 3A4 Assay (Luc, luminescence, human liver microsomes); type: in vitro ADME; conditions: human liver microsomes 0.4 mg/mL, substrate LUC-LIPA
T2 construct: The incubations consisted of human liver microsomal protein at 0.4 mg/ml; from tissue; host or cells: human liver microsomes
Procedure: Each assay was preformed in ½ well plates. Test compounds were examined at six concentrations in DMSO that were serial diluted to: 2, 0.6, 0.2, 0.07, 0.02, and 0.007 mM (from left to right) and at 100×; 0.5 ul of these dilutions were added to two empty assay plates (resulting in final assay concentrations of 20, 6, 2, 0.7, 0.2, and 0.07 uM. The control and vehicle were added to the plate at 100× with the same dilution scheme.
The incubations consisted of human liver microsomal protein at 0.4 mg/ml in 100 mM KPO4 buffer, 125 uM NADPH and Regeneration mix in phosphate buffer at pH 7.4.
CYP3A4 requires a pre-incubation using the following recipe:
• CYP3A4—5 μM LUC-LIPA in 100 mM phosphate buffer pH 7.4 • Assay Procedure for CYP3A4: • 1. 40 uL of the Pre-incubation Mixture was added to all wells of the assay plates. • 2. Plates were pre-incubated for 10 minutes at 37° C., with shaking or rocking. (No pre-read is necessary for the luminescence assays CYP2C9 and CYP3A4). • 3. 10 μL of Substrate Solution was added to all wells of the assay plates. • 4. Plates were incubated for an additional 25 minutes at 37° C., with shaking or rocking. • 5. added 50 μl of stop/developer from respective kits, and incubated for 20 minutes to 2 hours with shaking at room temperature prior to reading. […]

[3] = biological target: T3, CSF1R (Homo sapiens, UniProt P07333); assay: HTRF in vitro kinase assay, CSF1R; type: biochemical; conditions: 1 mM ATP
T3 construct: CSF-1R Q547- C972; M-His(6) (N)
T3 sequence (P07333 547-972): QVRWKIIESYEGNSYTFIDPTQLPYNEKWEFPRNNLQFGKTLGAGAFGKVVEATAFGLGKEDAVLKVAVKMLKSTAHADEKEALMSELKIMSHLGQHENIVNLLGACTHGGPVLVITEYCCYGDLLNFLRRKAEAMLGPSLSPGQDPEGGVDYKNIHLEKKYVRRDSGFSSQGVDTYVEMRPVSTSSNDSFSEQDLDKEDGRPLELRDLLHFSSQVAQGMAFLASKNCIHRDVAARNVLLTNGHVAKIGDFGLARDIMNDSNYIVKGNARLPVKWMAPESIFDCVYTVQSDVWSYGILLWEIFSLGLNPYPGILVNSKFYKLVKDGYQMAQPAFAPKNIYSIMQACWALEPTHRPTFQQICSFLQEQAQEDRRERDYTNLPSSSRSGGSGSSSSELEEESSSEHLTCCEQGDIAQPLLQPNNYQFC
Procedure: To determine the activity of the various kinases, a homogenous time-resolved fluorescence (HTRF) in vitro kinase assay was used. (Mathis, G., HTRF(R) Technology. J Biomol Screen, 1999. 4(6): p. 309-314; Alfred J. Kolb, Paul V. Kaplita, David J. Hayes, Young-Whan Park, Christine Pernell, John S. Major and Gerard Mathis, Drug Discovery Today, 1998, 3, 333-342.)
For example for KDR, cKIT, FLT1, CSF1R and FTL3, purified enzyme was mixed with 0.5 μM N-biotinylated substrate (Biotin-Ahx-[…]-amide (SEQ. ID. 1)), various concentrations of inhibitor in reaction buffer (50 mM HEPES, pH 7.1, 10 mM MgCl2, 2 mM MnCl2, 0.1% BSA and 1 mM DTT, 40 μL final volume), ATP (1 mM final conc.) in a black 384-well plate. […] The quenched reaction was allowed to stand at room temperature for 3 hours and was then read in a time-resolved fluorescence detector (InVision, Perkin-Elmer) at 620 nm and 665 nm sequentially with excitation. The ratio between the signal of 620 nm and 665 nm was used in the calculation of the IC50.

[4] = CLND Solubility Assay; type: physicochemical
Procedure: Chemiluminescent nitrogen detection (CLND) method oxidized the analyte to nitrogen oxide that reacted with ozone to provide a photon of light and was a measure of how much compound was in solution. Compounds must contain nitrogens for this experiment. Nitrogen impurities present in the compound will cause falsely high results. • 1. Compound concentration tested was 35 μM in 10 mM phosphate buffer, 7.2. • 2. Compounds were tested in triplicate. • 3. Compound concentration was determined by comparing readings to a caffeine standard curve. One standard curve was run before and after every test plate. For 3 test plates, four standard curves were generated.
Experimental Procedure: • 1. 5 μl of 5 mM test compound in DMSO was added to three adjacent wells in a plate. • 2. 695 μl of 10 mM phosphate buffer, pH 7.2, was added to each well. • 3. The plates were sealed. • 4. The plates were allowed to sonicate for 1 hour. • 5. The plates were shook on a plate orbital shaker for up to 6 hours. • 6. The plates were spinned at 5000 rpm (6000×G) overnight. • 7. Standard curves were prepared by adding 5 μl of stock solutions to wells according to Caffeine Concentrations for Standard Curve table below. • 8. Buffer (10 mM phosphate buffer, pH 7.2, 695 μl) was added. • 9. The plates were sealed. • 10. The plates were loaded onto a TOC/CLND. • 11. The results were analyzed after the run was completed.
The solubility was determined by comparing the reading generated by analysis of the sample to the standard curve. The value was then divided by the number of nitrogens contained in the compound. Corrections for impurities during the synthesis were included in the number of nitrogens. The resulting value was the reported solubility.

T1 sequence (Q96GD4 whole entry, the tested form may be a part): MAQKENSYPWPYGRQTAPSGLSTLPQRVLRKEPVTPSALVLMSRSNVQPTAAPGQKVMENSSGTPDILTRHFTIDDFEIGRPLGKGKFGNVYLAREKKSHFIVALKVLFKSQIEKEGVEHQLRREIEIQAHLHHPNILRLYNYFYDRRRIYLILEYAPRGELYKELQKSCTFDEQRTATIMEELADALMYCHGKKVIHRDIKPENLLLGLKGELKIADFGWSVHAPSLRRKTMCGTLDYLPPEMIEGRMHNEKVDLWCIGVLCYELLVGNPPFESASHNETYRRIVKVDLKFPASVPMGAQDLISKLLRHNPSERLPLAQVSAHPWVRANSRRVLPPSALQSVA
T1 sequence (Q9NQS7 803-918 partner limits assumed): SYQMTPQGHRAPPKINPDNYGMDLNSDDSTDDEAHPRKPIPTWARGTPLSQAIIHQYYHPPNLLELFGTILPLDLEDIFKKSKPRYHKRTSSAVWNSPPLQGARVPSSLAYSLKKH
T2 sequence (P08684 whole entry): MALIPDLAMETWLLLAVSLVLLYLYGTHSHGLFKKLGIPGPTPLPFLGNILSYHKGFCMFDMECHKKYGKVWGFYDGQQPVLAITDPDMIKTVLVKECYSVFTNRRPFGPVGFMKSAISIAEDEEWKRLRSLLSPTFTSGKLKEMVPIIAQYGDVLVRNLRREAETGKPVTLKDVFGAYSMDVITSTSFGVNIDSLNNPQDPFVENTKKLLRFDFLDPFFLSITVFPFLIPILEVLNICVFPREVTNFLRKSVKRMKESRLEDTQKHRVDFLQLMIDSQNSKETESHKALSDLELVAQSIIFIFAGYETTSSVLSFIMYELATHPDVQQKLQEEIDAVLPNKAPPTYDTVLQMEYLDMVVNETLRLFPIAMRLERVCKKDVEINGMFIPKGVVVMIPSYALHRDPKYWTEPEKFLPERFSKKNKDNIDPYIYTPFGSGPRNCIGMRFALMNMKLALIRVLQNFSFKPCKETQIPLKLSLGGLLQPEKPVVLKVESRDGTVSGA

IC50 [1]: 1.3 nM
IC50 [2]: > 20000 nM
IC50 [3]: 3 nM
solubility ([4]; aqueous buffer, kinetic from dmso stock, 35 μM compound in 10 mM phosphate buffer, pH 7.2): 6.03 µM (≈ 2.6 µg/mL)
aqueous solubility, in words ([4]; comment on Table 5): extremely low aqueous solubility
SMILES: CNC(=O)c1cnc(N)c2c(-c3ccc(NC(=O)Nc4cccc(C)c4)cc3)csc12 [Example 2, 4-amino-N-methyl-3-(4-{[(3-methylphenyl)carbamoyl]amino}phenyl)thieno[3,2-c]pyridine-7-carboxamide]
